Holding throughout (assay type): in vivo
One experiment concerns C. elegans. In words: Lifespan of adult worms (C. elegans). The note with it: P<0.0001 (log-rank test) vs vehicle.
For experiment [1], the system named is 101-week old C57BL/6J mice. In words: Oral α-KB in drinking water in aged mice: survival, aging traits, hair. As for the experimental part: (§1) Additionally, α-KG was administrated in drinking water to 6-week old C57/B6 mice for 10 weeks. α-KG was dissolved at 16 mM and water was changed every other day to ensure the integrity of the compound. Oral administration of α-KB was tested in 101-week old C57/B6 mice and lasted for 30 weeks. The concentration of α-KB was 8 mM and water was changed weekly. Pigmentation/hair changes were also monitored by assigning arbitrary values and photos.
Based on the lifespan extending effects of α-KB in C. elegans (FIG. 2), the anti-aging properties in mice were examined. Aged 101-week old C57BL/6J mice were treated with 8 mM α-KB acid dissolved in drinking water for up to 30 weeks.

In experiment [2] the test system is 6-week old C57/B6 mice. In words: Topical treatment of shaved dorsal skin of young mice: pigmentation and hair growth. The note with it: 16 mM in Transdermal Gel, topical every other day, vs control. As for the experimental part:
Mice were topically (unless indicated otherwise) treated every other day with the indicated amount and photos were taken every week. Mice were monitored for the appearance of skin pigmentation, signaling the initiation of anagen. No hair growth (and no pigmentation) was assigned the arbitrary value of 0. Skin darkening was given a value from 0 to 100%, with the higher number indicating darker skin and visible hair growth.
Compounds were dissolved in Transdermal Gel at 16 mM and applied on mice dorsal skin every other day. To show the pigmentation progression, the appearance of skin pigmentation, signaling the initiation of anagen, was assigned an arbitrary value based on skin darkening. No hair growth (and no pigmentation) was assigned a value of 0 and darker skin/visible hair growth was assigned with higher numbers. Photos were taken weekly to document the pigmentation/hair changes.
Dorsal hair was shaved by trimmer at Week 7 and α-KB acid was dissolved in Transdermal Gel at 16 mM and applied on mice dorsal skin every other day.

Experiment [3] has as its system 6-week old C57/B6 mice. In words: Oral α-KG in drinking water in young mice: hair growth. The note with it: 16 mM in drinking water, 10 weeks, vs negative controls. As for the experimental part:
as §1

“Also recorded” adds a separate entry of the source.

For the compound `CCC(=O)C(=O)O` [α-KB, alpha-ketobutyrate], in the experiment with C. elegans, the “mean lifespan (days of adulthood)” value is listed as 22.4 days of adulthood. The “aging traits (such as cataracts)” value in experiment [1] (aged mice, 8 mM in drinking water) is “prevented aging traits in aged mice”. For the same compound, the “age-related hair loss / hair pigmentation and density on dorsal skin” value in experiment [1] (aged mice, not shaved, 8 mM in drinking water, vs control) was “exhibited black and thick hair; also recorded: delays or reduces age-related hair loss”. For the same compound, the “lifespan / survival of old male mice” value in experiment [1] (old male C57BL/6J mice, 8 mM in drinking water from 101 weeks for up to 30 weeks, P=0.0476 (Fisher's exact test)) is recorded as “significantly increased survival to beyond 131 weeks of age in male animals; also recorded: increases the lifespan of old male C57BL/6J mice”. For the same compound, in the experiment on 6-week old C57/B6 mice [2], the hair growth result is reported as “hair growth was accelerated; also recorded: stimulates hair growth by Day 14” and the “skin pigmentation (initiation of anagen)” value is listed as “started to show pigmentation patches after one week; also recorded: improved pigmentation”.

On to `O=C(O)CCC(=O)C(=O)O` [α-KG, alpha-ketoglutarate], for which the “mean lifespan (days of adulthood)” value in the experiment with C. elegans is reported as 26.1 days of adulthood. Besides, in the experiment on 6-week old C57/B6 mice [3], the “hair growth after oral administration” value is reported as “confirmed its effects for hair growth; also recorded: significantly induces hair growth”.

For `CC[C@H](O)C(=O)O` [2-HB, 2-hydroxybutyrate], in the experiment with C. elegans, the “mean lifespan (days of adulthood)” value is listed as 19.8 days of adulthood. Also, in the experiment on 6-week old C57/B6 mice [2], the hair growth entry is “had hair growing back faster; also recorded: accelerated pigmentation and hair growth on Day 14”; the “skin pigmentation (initiation of anagen)” value was “showed pigmentation earlier; also recorded: pigmentation improved; also recorded: accelerated pigmentation”.

Source of the values: US20230144845A1 (The Regents of the University of California, priority 2016, published 2023).
